Measurements: patent publication US20240067693A1, “POLYPEPTIDES AND USES THEREOF” (MEDIMMUNE LIMITED, priority 2020, published 2024)
Like-named read-outs stand apart in the source and are kept apart here. Numbered stars: 1 amine (or outer) side, 2 acyl side, 3 side chain; on linkers, the order of the positions; unused ones are H or OH. Bridge positions count the residues as written; N and C are the ends. Square brackets hold non-standard residues; d marks the D form. Side chains are listed from the residue outwards. Peptide text beside a SMILES is read from it. * marks the point of attachment. C18 diacid = O=C(O)CCCCCCCCCCCCCCCCC(=O)*; γGlu = O=C(O)[C@H](CCC(=O)[*:2])N[*:1]; Aib = CC(C)(N)C(=O)O

Experiments:
[1] = target: T1, human amylin receptor (calcitonin receptor co-expressed with receptor activity modifying protein, RAMP3) (hAMYR3) (Homo sapiens, UniProt O60896+P30988); assay: cAMP production in 1321N1 cells with stable recombinant expression of human amylin receptor (hAMYR3); type: cell-based; conditions: for Ratio (selectivity hAMYR vs hCTR, ratio of EC50 values at the two receptors): EC50 hCTR / EC50 hAMYR3
T1 construct: expressed in transfected cells
T1 sequence (P30988 25-474): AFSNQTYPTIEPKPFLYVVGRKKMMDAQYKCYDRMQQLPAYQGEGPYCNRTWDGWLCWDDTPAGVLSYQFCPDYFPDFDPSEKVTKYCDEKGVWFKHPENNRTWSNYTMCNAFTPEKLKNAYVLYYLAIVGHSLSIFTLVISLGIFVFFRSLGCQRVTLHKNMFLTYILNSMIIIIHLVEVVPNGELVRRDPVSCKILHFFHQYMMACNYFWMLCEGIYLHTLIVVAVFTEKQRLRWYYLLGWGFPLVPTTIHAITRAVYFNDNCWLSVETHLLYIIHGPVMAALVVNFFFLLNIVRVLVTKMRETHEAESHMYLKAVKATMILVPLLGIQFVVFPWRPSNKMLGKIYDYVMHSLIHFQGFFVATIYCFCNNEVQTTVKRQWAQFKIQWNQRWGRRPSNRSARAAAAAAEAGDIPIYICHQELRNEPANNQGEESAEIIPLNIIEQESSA
T1 sequence (O60896 24-148 partner): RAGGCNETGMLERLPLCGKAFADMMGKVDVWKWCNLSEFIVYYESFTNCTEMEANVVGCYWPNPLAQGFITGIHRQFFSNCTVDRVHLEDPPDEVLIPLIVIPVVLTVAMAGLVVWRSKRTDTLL
How it was run: (§1)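 Receptor-expressing cells (human receptors in 1321N1, rat receptors in HEK) incubated 30 min at room temperature with peptide in HBSS/HEPES pH 7.4, 0.1% BSA, 0.5 mM IBMX. cAMP read by HTRF; EC50 from 4-parameter fit as % of maximal amylin or calcitonin response.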

[2] = target: T2, human calcitonin receptor (hCTR) (Homo sapiens, UniProt P30988); assay: cAMP production in 1321N1 cells with stable recombinant expression of human calcitonin receptor (hCTR); type: cell-based
T2 construct: expressed in transfected cells
T2 sequence (P30988 25-474): T1 sequence (P30988 25-474)
How it was run: as §1

[3] = cAMP, 1321N1 cells, assay buffer with 0.1% BSA, read-out: EC50 (pM) hAMYR3
[4] = cAMP, 1321N1 cells, assay buffer with 0.1% BSA, read-out: EC50 (pM) hCTR

Compound | Ratio (selectivity hAMYR vs hCTR, ratio of EC50 values at the two receptors) [1] | EC50 [1, 3] | EC50 [2, 4] | EC50 [1] | EC50 [2]
CC[C@H](C)[C@H](NC(=O)[C@@H]1CCCN1C(=O)CNC(=O)[C@H](Cc1ccccc1)NC(=O)[C@H](CC(N)=O)NC(=O)C(C)(C)NC(=O)[C@H](CO)NC(=O)[C@H](CO)NC(=O)[C@H](Cc1c[nH]cn1)NC(=O)C(C)(C)NC(=O)[C@H](CC(C)C)NC(=O)[C@H](Cc1ccccc1)NC(=O)[C@H](CC(N)=O)NC(=O)[C@H](C)NC(=O)[C@H](CC(C)C)NC(=O)[C@H](CCCNC(=N)N)NC(=O)[C@H](CCC(N)=O)NC(=O)[C@@H](NC(=O)[C@H](C)NC(=O)[C@@H]1CSSC[C@H](NC(=O)[C@H](CCCCN)NC(=O)[C@@H](N)CCCCNC(=O)CC[C@H](NC(=O)CCCCCCCCCCCCCCCCC(=O)O)C(=O)O)C(=O)N[C@@H](CC(N)=O)C(=O)N[C@@H]([C@@H](C)O)C(=O)N[C@@H](C)C(=O)N[C@@H]([C@@H](C)O)C(=O)N1)[C@@H](C)O)C(=O)N[C@@H](CC(C)C)C(=O)N1CCC[C@H]1C(=O)N1CCC[C@H]1C(=O)N[C@H](C(=O)N[C@@H](CC(N)=O)C(=O)N[C@H](C(=O)NCC(=O)N[C@@H](CO)C(=O)N[C@@H](CC(N)=O)C(=O)N[C@H](C(=O)N1CCC[C@H]1C(N)=O)[C@@H](C)O)C(C)C)[C@@H](C)O [Peptide 87, K(γE-C18diacid)K[CNTATC]ATQRLANFL(Aib)HSS(Aib)NFGPILPPTNVGSNTP-amide] (H-K([γGlu-C18 diacid])KCNTATCATQRLANFL[Aib]HSS[Aib]NFGPILPPTNVGSNTP-NH2; disulfide 3-8; N-terminus assumed) | 1 | 71 pM | 74 pM | – | –
CC[C@H](C)[C@H](NC(=O)[C@@H]1CCCN1C(=O)CNC(=O)[C@H](Cc1ccccc1)NC(=O)[C@H](CC(N)=O)NC(=O)C(C)(C)NC(=O)[C@H](CO)NC(=O)[C@H](CO)NC(=O)[C@H](Cc1c[nH]cn1)NC(=O)[C@@H](NC(=O)[C@H](CC(C)C)NC(=O)[C@H](Cc1ccccc1)NC(=O)[C@H](CC(N)=O)NC(=O)[C@H](C)NC(=O)[C@H](CC(C)C)NC(=O)[C@H](CCCNC(=N)N)NC(=O)[C@H](CCC(N)=O)NC(=O)[C@@H](NC(=O)[C@H](C)NC(=O)[C@@H]1CSSC[C@H](NC(=O)[C@@H](N)CCCCNC(=O)CC[C@H](NC(=O)CC[C@H](NC(=O)CCCCCCCCCCCCCCCCC(=O)O)C(=O)O)C(=O)O)C(=O)N[C@@H](CC(N)=O)C(=O)N[C@@H]([C@@H](C)O)C(=O)N[C@@H](C)C(=O)N[C@@H]([C@@H](C)O)C(=O)N1)[C@@H](C)O)C(C)C)C(=O)N[C@@H](CC(C)C)C(=O)N1CCC[C@H]1C(=O)N1CCC[C@H]1C(=O)N[C@H](C(=O)NC(C)(C)C(=O)N[C@H](C(=O)NCC(=O)N[C@@H](CO)C(=O)N[C@@H](CC(N)=O)C(=O)N[C@H](C(=O)N[C@@H](Cc1ccc(O)cc1)C(N)=O)[C@@H](C)O)C(C)C)[C@@H](C)O [Peptide 89, K(γE-γE-C18diacid)[CNTATCJATQRLANFLVHSS(Aib)NFGPILPPT(Aib)VGSNTY-amide] (H-K([γGlu-γGlu-C18 diacid])CNTATCATQRLANFLVHSS[Aib]NFGPILPPT[Aib]VGSNTY-NH2; disulfide 2-7; N-terminus assumed) | – | – | – | 447 pM | 8240 pM

Now from value to molecule, other results behind:

Ratio (selectivity hAMYR vs hCTR, ratio of EC50 values at the two receptors) [1] | EC50 [1, 3] | EC50 [2, 4] | Compound | EC50 [1] | EC50 [2]
3 | 119 pM | 311 pM | CC[C@H](C)[C@H](NC(=O)[C@@H]1CCCN1C(=O)CNC(=O)[C@H](Cc1ccccc1)NC(=O)[C@H](CC(N)=O)NC(=O)C(C)(C)NC(=O)[C@H](CO)NC(=O)[C@H](CO)NC(=O)[C@H](Cc1c[nH]cn1)NC(=O)C(C)(C)NC(=O)[C@H](CC(C)C)NC(=O)[C@H](Cc1ccccc1)NC(=O)[C@H](Cc1c[nH]cn1)NC(=O)[C@H](C)NC(=O)[C@H](CC(C)C)NC(=O)[C@H](CCCNC(=N)N)NC(=O)[C@H](CCC(N)=O)NC(=O)[C@@H](NC(=O)[C@H](C)NC(=O)[C@@H]1CSSC[C@H](NC(=O)[C@H](CCCCN)NC(=O)[C@@H](N)CCCCNC(=O)CC[C@H](NC(=O)CCCCCCCCCCCCCCCCC(=O)O)C(=O)O)C(=O)N[C@@H](CC(N)=O)C(=O)N[C@@H]([C@@H](C)O)C(=O)N[C@@H](C)C(=O)N[C@@H]([C@@H](C)O)C(=O)N1)[C@@H](C)O)C(=O)N[C@@H](CC(C)C)C(=O)N1CCC[C@H]1C(=O)N1CCC[C@H]1C(=O)N[C@H](C(=O)N[C@@H](CCC(=O)O)C(=O)N[C@H](C(=O)NCC(=O)N[C@@H](CO)C(=O)N[C@@H](CC(N)=O)C(=O)N[C@H](C(=O)N[C@@H](Cc1ccc(O)cc1)C(N)=O)[C@@H](C)O)C(C)C)[C@@H](C)O [Peptide 86, K(γE-C18diacid)K[CNTATC]ATQRLAHFL(Aib)HSS(Aib)NFGPILPPTEVGSNTY-amide] (H-K([γGlu-C18 diacid])KCNTATCATQRLAHFL[Aib]HSS[Aib]NFGPILPPTEVGSNTY-NH2; disulfide 3-8) | – | –
4 | 281 pM | 1170 pM | CC[C@H](C)[C@H](NC(=O)[C@@H]1CCCN1C(=O)CNC(=O)[C@H](Cc1ccccc1)NC(=O)[C@H](CC(N)=O)NC(=O)C(C)(C)NC(=O)[C@H](CO)NC(=O)[C@H](CO)NC(=O)[C@H](Cc1c[nH]cn1)NC(=O)[C@@H](NC(=O)[C@H](CC(C)C)NC(=O)[C@H](Cc1ccccc1)NC(=O)[C@H](CC(N)=O)NC(=O)[C@H](C)NC(=O)[C@H](CC(C)C)NC(=O)[C@H](CCCNC(=N)N)NC(=O)[C@H](CCC(N)=O)NC(=O)[C@@H](NC(=O)[C@H](C)NC(=O)[C@@H]1CSSC[C@H](NC(=O)[C@H](CCCCN)NC(=O)[C@@H](N)CCCCNC(=O)CC[C@H](NC(=O)CCCCCCCCCCCCCCCCC(=O)O)C(=O)O)C(=O)N[C@@H](CC(N)=O)C(=O)N[C@@H]([C@@H](C)O)C(=O)N[C@@H](C)C(=O)N[C@@H]([C@@H](C)O)C(=O)N1)[C@@H](C)O)C(C)C)C(=O)N[C@@H](CC(C)C)C(=O)NC(C)(C)C(=O)N1CCC[C@H]1C(=O)N[C@H](C(=O)N[C@@H](CC(N)=O)C(=O)N[C@H](C(=O)NCC(=O)N[C@@H](CO)C(=O)N[C@@H](CC(N)=O)C(=O)N[C@H](C(=O)N[C@@H](Cc1ccc(O)cc1)C(N)=O)[C@@H](C)O)C(C)C)[C@@H](C)O [Peptide 88, K(γE-C18diacid)K[CNTATC]ATQRLANFLVHSS(Aib)NFGPIL(Aib)PTNVGSNTY-amide] (H-K([γGlu-C18 diacid])KCNTATCATQRLANFLVHSS[Aib]NFGPIL[Aib]PTNVGSNTY-NH2; disulfide 3-8; N-terminus assumed) | – | –
15 | 1060 pM | 15600 pM | CC[C@H](C)[C@H](NC(=O)[C@@H]1CCCN1C(=O)CNC(=O)[C@H](Cc1ccccc1)NC(=O)[C@H](CC(N)=O)NC(=O)C(C)(C)NC(=O)[C@H](CO)NC(=O)[C@H](CO)NC(=O)[C@H](Cc1c[nH]cn1)NC(=O)[C@H](CCCNC(=N)N)NC(=O)[C@H](CC(C)C)NC(=O)[C@H](Cc1ccccc1)NC(=O)[C@H](CC(N)=O)NC(=O)[C@H](C)NC(=O)[C@H](CC(C)C)NC(=O)[C@H](CCCNC(=N)N)NC(=O)[C@H](CCC(N)=O)NC(=O)[C@@H](NC(=O)[C@H](C)NC(=O)[C@@H]1CSSC[C@H](NC(=O)[C@@H](N)CCCCNC(=O)CC[C@H](NC(=O)CC[C@H](NC(=O)CCCCCCCCCCCCCCCCC(=O)O)C(=O)O)C(=O)O)C(=O)N[C@@H](CC(N)=O)C(=O)N[C@@H]([C@@H](C)O)C(=O)N[C@@H](C)C(=O)N[C@@H]([C@@H](C)O)C(=O)N1)[C@@H](C)O)C(=O)N[C@@H](CC(C)C)C(=O)N1CCC[C@H]1C(=O)N1CCC[C@H]1C(=O)N[C@H](C(=O)NC(C)(C)C(=O)N[C@H](C(=O)NCC(=O)N[C@@H](CO)C(=O)N[C@@H](CC(N)=O)C(=O)N[C@H](C(=O)N[C@@H](Cc1ccc(O)cc1)C(N)=O)[C@@H](C)O)C(C)C)[C@@H](C)O [Peptide 90, K(γE-γE-C18diacid)[CNTATC]ATQRLANFLRHSS(Aib)NFGPILPPT(Aib)VGSNTY-amide] (H-K([γGlu-γGlu-C18 diacid])CNTATCATQRLANFLRHSS[Aib]NFGPILPPT[Aib]VGSNTY-NH2; disulfide 2-7; N-terminus assumed) | – | –
